Measured values reported in patent US11696928B2, “Compounds and use thereof in the expansion of stem cells and/or progenitor cells” (UNIVERSITE DE MONTREAL, priority 2017, dated 2023).

What was measured:
[1] = tested on: Human CD34+ cord blood (CB) cells; experiment: CD34+ activity assessment (7-day expansion of pre-expanded CD34+ cells, flow cytometry); assay type: cell-based; conditions: concentration at which compound/vehicle ratio of CD34+ cell number is >= 1.5; 7 days, with 35 nM UM0128171; Table 1
Experimental: Human CD34+ cord blood (CB) cells were isolated from fresh units using RosetteSep™ 0034 pre-enrichment cocktail followed by CD34 positive selection using EasySep Kit™ (StemCell Technologies). The cells were then pre-expanded in bulk, by culturing at 37° C. for 6 days in HSC expansion media consisting of StemSpan ACF (StemCell Technologies) supplemented with 100 ng/mL Stem Cell Factor (SCF, Shenandoah), 100 ng/mL FMS-like Tyrosine Kinase 3 Ligand (FLT3L, Shenandoah), 50 ng/mL Thrombopoietin (TPO, Shenandoah), 2 mM GlutaMAX™ (Invitrogen), 10 μg/mL low density lipoproteins (LDL, StemCell Technologies), 10 μg/mL Ciprofloxacin and 35 nM UM0128171. […] Following the pre-expansion, cells were harvested, aliquoted and frozen until use.
For each activity assessment, CD34+ pre-expanded cells (approximately 2000 per well in a 384-well plate) were cultured in HSC expansion media, in the presence of 35 nM UM0128171. Compounds were serially diluted (1/2) in DMSO (10 dilutions per compound) and added to the cells in order to achieve a 1/1000 final dilution. StemRegenin1 (SR1) and/or Compound 1001 were included in all experiments as controls to monitor assay performance. The plate was incubated at 37° C. for 7 days in static conditions (i.e. no shaking and no addition of media). Flow cytometry analysis was performed at the end of the 7-day expansion. Cells were stained with PE-labeled anti-human CD45RA (BD Biosciences) and APC-labeled anti-human CD34 (BD Biosciences) and analyzed using Intellicyt IQue cytometer equipped with ForeCyt software. Gates were drawn around the populations of interest to obtain cell numbers and relative proportions. The EC1.5 value, which is the concentration at which the compound/vehicle ratio is greater or equal to 1.5, was calculated by plotting the CD34+ cell number against concentrations (log-scale) in a 4-PL curve and fitting the curve using IDBS XLfit (set model 251) in Microsoft Excel.

AhR = target: T1, AhR (Homo sapiens, UniProt P35869); experiment: Inhibition of AhR-mediated gene transcription (HEK-XRE 11.1 luciferase reporter, MeBIO induction); assay type: cell-based; conditions: HEK-XRE 11.1 cells, MeBIO 0.1 nM, luminescence after 24 hours
T1 construct: One of the resultant clones was named HEK-XRE 11.1, and used in the reporter gene assays; endogenous in cells; host or cells: HEK-XRE 11.1 (HEK cells stably carrying the AhR-responsive luciferase reporter X4-4.27 and phRL-CMV)
T1 sequence (P35869 11-848): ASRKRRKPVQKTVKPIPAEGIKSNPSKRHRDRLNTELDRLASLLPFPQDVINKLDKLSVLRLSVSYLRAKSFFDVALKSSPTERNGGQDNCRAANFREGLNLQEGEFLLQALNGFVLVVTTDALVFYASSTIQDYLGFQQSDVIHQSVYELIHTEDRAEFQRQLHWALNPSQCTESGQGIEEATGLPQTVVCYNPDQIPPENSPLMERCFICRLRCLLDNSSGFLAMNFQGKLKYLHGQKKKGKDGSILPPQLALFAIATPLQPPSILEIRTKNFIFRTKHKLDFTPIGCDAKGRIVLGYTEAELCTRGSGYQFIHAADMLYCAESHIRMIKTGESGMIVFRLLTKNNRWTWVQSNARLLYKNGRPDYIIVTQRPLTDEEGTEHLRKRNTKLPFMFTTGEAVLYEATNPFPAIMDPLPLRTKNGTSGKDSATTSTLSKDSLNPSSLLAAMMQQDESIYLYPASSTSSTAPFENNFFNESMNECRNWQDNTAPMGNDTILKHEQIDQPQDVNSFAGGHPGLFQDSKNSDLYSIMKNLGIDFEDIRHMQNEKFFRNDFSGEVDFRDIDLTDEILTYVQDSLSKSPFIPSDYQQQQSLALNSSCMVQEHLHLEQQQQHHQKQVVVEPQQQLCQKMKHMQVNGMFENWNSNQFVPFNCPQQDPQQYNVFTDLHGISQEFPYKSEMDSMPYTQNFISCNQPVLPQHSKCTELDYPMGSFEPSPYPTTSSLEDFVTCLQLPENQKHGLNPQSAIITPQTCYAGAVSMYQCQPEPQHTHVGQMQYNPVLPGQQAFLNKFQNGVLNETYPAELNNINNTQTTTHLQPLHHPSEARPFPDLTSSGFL
Experimental: HEK cells line was transfected with an AhR-responsive firefly luciferase reporter gene X4-4.27 and the stable transfectants generated were again transfected with phRL-CMV (a Renilla luciferase expression vector; Promega) along with pBAsi-hU6 Pur DNA (a plasmid carrying the puromycin-resistant gene; TaKaRa, Shiga, Japan), and maintained in the presence of both hygromycin B and puromycin (2 mg/mL). One of the resultant clones was named HEK-XRE 11.1, and used in the reporter gene assays.
HEK-XRE 11.1 cells were plated in 384-well plates at a density of 25,000 cells in 50 uL volume per well. The induction of ARh pathway was done by addition of MeBIO at 0.1 nM concentration. ARh antagonist compounds were then added to seeded cells in serial dilutions (8 dilutions, 1:[…] down to 5 nM) in duplicate wells. Renilla expression was not used as internal control. On each plate, Compound 1001 and SR1 were added as dose control (8 dilutions, 1:3, 5 mM down to 2.5 nM for SR1 and 2 mM down to 1 nM for compound 1001). Luminescence activity was evaluated after 24 hours culture using Lumi-384-CellTiterGlo-Corning protocol. Dose-response curves were generated using nonlinear regression in Excel.

SMILES | EC1.5 [1] [nM] | IC50 (AhR; Table 1) [nM] | IC50 (AhR; Table 2) [nM]
N#CCc1ccc(NC(=O)c2sc3ncc(C(F)(F)F)cc3c2N)cc1 [Compound 1038] | >5000 | < 50 | –
C=CCc1cnc2sc(C(=O)Nc3ccccc3)c(N)c2c1 [Compound 1111] | – | 50 to 500 | –
Cc1ccc2sc(C(=O)Nc3ccc(Cl)cc3)c(N)c2n1 [Compound 1073] | >5000 | 50 to 500 | –
C#Cc1cnc2sc(C(=O)Nc3ccncc3)c(N)c2c1 [Compound 1020] | – | 50 to 500 | –
Nc1c(C(=O)Nc2cccc3cnccc23)sc2ncc(C(F)(F)F)cc12 [Compound 1039] | >5000 | 50 to 500 | –
Nc1c(C(=O)Nc2ccc(Cl)cc2)sc2ncc(C(F)(F)F)cc12 [Compound 1045] | <100 | < 50 | –
Nc1c(C(=O)Nc2ccc(Br)cc2)sc2cnc(C(F)(F)F)cc12 [Compound 1049] | – | 50 to 500 | –
Nc1c(C(=O)Nc2ccc(Cl)c(Cl)c2)sc2ncc(C(F)(F)F)cc12 [Compound 1095] | 100 to 1000 | 50 to 500 | –
CNC(=O)c1ccc(NC(=O)c2sc3ncc(C(F)(F)F)cc3c2N)cc1 [Compound 1124] | 100 to 1000 | 50 to 500 | –
COCc1ccc(NC(=O)c2sc3ncc(C(F)(F)F)cc3c2N)cc1 [Compound 1018] | 1000 to 5000 | < 50 | –
Cc1cnc2sc(C(=O)Nc3ccc(C(F)(F)F)cc3)c(N)c2c1 [Compound 1137] | <100 | < 50 | –
CN(C)c1ccc(NC(=O)c2sc3ncc(C(F)(F)F)cc3c2N)cc1 [Compound 1126] | 1000 to 5000 | 50 to 500 | –
CCOC(=O)c1cnc2sc(C(=O)Nc3ccccc3)c(N)c2c1 [Compound 1044] | >5000 | 50 to 500 | –
Nc1c(C(=O)Nc2ccccc2)sc2ncc(F)cc12 [Compound 1010] | >5000 | 50 to 500 | –
Nc1c(C(=O)Nc2ccccc2)oc2nc3c(cc12)CCC3 [Compound 1153] | – | – | 50 to 500
Nc1c(C(=O)Nc2ccc(Br)cc2)sc2ccc(C(F)(F)F)cc12 [Compound 1064] | 100 to 1000 | 50 to 500 | –
Nc1c(C(=O)Nc2ccc(C(F)(F)F)cc2)sc2ccc(C(F)(F)F)cc12 [Compound 1138] | >5000 | 50 to 500 | –
N#Cc1cnc2sc(C(=O)Nc3ccccc3)c(N)c2c1 [Compound 1016] | 100 to 1000 | > 500 | –
CSc1ccc(NC(=O)c2sc3ncc(C)cc3c2N)cc1 [Compound 1143] | <100 | < 50 | –
CCOc1ccc(NC(=O)c2sc3ncc(C)cc3c2N)cc1 [Compound 1142] | 100 to 1000 | < 50 | –
COc1ccc(NC(=O)c2sc3ncc(C)cc3c2N)cc1Cl [Compound 1135] | <100 | < 50 | –
COC(=O)c1ccc(NC(=O)c2sc3ncc(C(F)(F)F)cc3c2N)cc1 [Compound 1125] | 100 to 1000 | 50 to 500 | –
Nc1c(C(=O)Nc2ccc(Br)cc2)sc2ncc(C(F)(F)F)cc12 [Compound 1037] | – | < 50 | –
Nc1c(C(=O)Nc2cccnc2)sc2nc3c(cc12)CCC3 [Compound 1006] | 1000 to 5000 | 50 to 500 | –
Nc1c(C(=O)Nc2ccncc2)sc2ncc(Br)cc12 [Compound 1012] | – | 50 to 500 | –

SMILES | EC1.5 [1] [nM] | IC50 (AhR; Table 1) [nM] | IC50 (AhR; Table 2) [nM]
Nc1c(C(=O)Nc2ccc(CO)cc2)sc2ncc(C(F)(F)F)cc12 [Compound 1019] | >5000 | > 500 | –
Nc1c(C(=O)Nc2ccncc2)sc2ccc(C(F)(F)F)cc12 [Compound 1035] | 100 to 1000 | < 50 | –
Cc1ccc2sc(C(=O)Nc3ccc(Cl)cc3)c(N)c2c1 [Compound 1130] | >5000 | 50 to 500 | –
COc1ccc(NC(=O)c2sc3ccc(C)cc3c2N)cc1 [Compound 1119] | 100 to 1000 | 50 to 500 | –
Cc1ccc(NC(=O)c2sc3ncc(C(F)(F)F)cc3c2N)cc1F [Compound 1078] | 1000 to 5000 | 50 to 500 | –
Nc1c(C(=O)Nc2ccncc2)sc2ncc(Cl)cc12 [Compound 1011] | 1000 to 5000 | < 50 | –
Nc1c(C(=O)Nc2ccc(-c3ccncc3)cc2)sc2ncc(C(F)(F)F)cc12 [Compound 1056] | >5000 | 50 to 500 | –
Nc1c(C(=O)Nc2ccnc3ccccc23)sc2ncc(C(F)(F)F)cc12 [Compound 1043] | >5000 | > 500 | –
Cc1cccc(NC(=O)c2sc3ncc(C)cc3c2N)c1 [Compound 1140] | 100 to 1000 | 50 to 500 | –
Cc1cnc2sc(C(=O)Nc3ccncc3)c(N)c2c1 [Compound 1063] | >5000 | 50 to 500 | –
CCc1cnc2sc(C(=O)Nc3ccccc3)c(N)c2c1 [Compound 1112] | – | 50 to 500 | –
Nc1c(C(=O)Nc2ccc3ncccc3c2)sc2ncc(C(F)(F)F)cc12 [Compound 1041] | 1000 to 5000 | 50 to 500 | –
C=C(C)c1cnc2sc(C(=O)Nc3ccccc3)c(N)c2c1 [Compound 1090] | – | < 50 | –
Cc1ccc2sc(C(=O)Nc3ccccc3)c(N)c2c1 [Compound 1118] | – | < 50 | –
CSc1ccc(NC(=O)c2sc3ncc(C(F)(F)F)cc3c2N)cc1 [Compound 1133] | – | < 50 | –
Cc1cnc2sc(C(=O)Nc3ccccc3)c(N)c2c1 [Compound 1009] | – | < 50 | –
Nc1c(C(=O)Nc2ccccc2)sc2ncc(Br)cc12 [Compound 1003] | – | < 50 | –
CCCc1cnc2sc(C(=O)Nc3ccccc3)c(N)c2c1 [Compound 1134] | – | < 50 | –
Nc1c(C(=O)Nc2ccc(F)cc2)sc2nc3c(cc12)CCC3 [Compound 1002] | – | < 50 | –
Nc1c(C(=O)Nc2ccc(F)cc2)sc2ncc(C(F)(F)F)cc12 [Compound 1060] | – | < 50 | –
Nc1c(C(=O)Nc2ccc(F)cn2)sc2ncc(C(F)(F)F)cc12 [Compound 1128] | 100 to 1000 | – | –
CCc1cnc2sc(C(=O)Nc3ccncc3)c(N)c2c1 [Compound 1021] | – | 50 to 500 | –
CC(C)c1cnc2sc(C(=O)Nc3ccccc3)c(N)c2c1 [Compound 1103] | – | < 50 | –
Nc1c(C(=O)Nc2ccc(-c3cccnc3)cc2)sc2ncc(C(F)(F)F)cc12 [Compound 1055] | – | 50 to 500 | –
